Measurements as given in patent US10471046B2, “Method for treating, preventing, or reducing the risk of skin infection” (Melinta Subsidiary Corp., priority 2014, dated 2019).
≈ marks a conversion by molar mass, not a printed value. Structures can show the parent of a compound that is named as a salt.

Key:
[1] = Dynamic vapor sorption/desorption (DVS); format: physicochemical; details: radezolid salts
Experimental: Dynamic vapor sorption/desorption (DVS) data were collected on a VTI SGA-100 Vapor Sorption Analyzer. Sorption and desorption data were collected over a range of 5% to 95% relative humidity (RH) at 10% RH intervals under a nitrogen purge. Samples were not dried prior to analysis. Equilibrium criteria used for analysis were less than 0.0100% weight change in 5 minutes, with a maximum equilibration time of 3 hours if the weight criterion was not met. Data were not corrected for the initial moisture content of the samples. Sodium chloride and polyvinylpyrrolidine (PVP) were used as calibration standards.

[2] = Solubility of salts in water by HPLC; format: physicochemical; details: for Solubility at Native pH / Solubility at Adjusted pH: radezolid salts in water by HPLC at 23° C.; for Solubility at Adjusted pH: pH adjusted to ~3.5; for Native pH: supernatant of saturated salt solution in water
Experimental: In another set of experiments, solubility of various radezolid salts was determined by HPLC. Approximately 1 mL of saturated solution (with excess of solid in solution) of each salt was prepared in water. The mixture was further mixed overnight on a slurry wheel then centrifuged on a desktop centrifuge at maximum speed for ˜5 min. The supernatant was collected, and pH was measured. Solubility was determined at the native pH. Then the pH was adjusted to ˜3.5 with sodium hydroxide solution or an acid solution in which salt was generated. The supernatant was filtered through a 0.2 μm nylon syringe filter and diluted into 0.1% formic acid solution immediately after filtration for HPLC. All HPLC analyses were performed using an Agilent 1100 series liquid chromatograph equipped with a diode array detector, degasser, quaternary pump, and an autosampler. […] The column temperature was set to 30° C., and the detector wavelength was 270 nm with a bandwidth of 8 nm and a reference wavelength of 360 nm. The mobile phase A was 0.1% formic acid in water (HPLC grade), mobile phase B was 0.1% formic acid in methanol (HPLC grade). […] The injection volume was 5 μl.

[3] = format: physicochemical; details: radezolid salt forms in HPLC grade water, ambient temperature
S. aureus = test: Minimum inhibitory concentrations (MICs) for S. aureus of exemplary compounds (Table 2); format: cell-based; details: Staphylococcus aureus, minimum inhibitory concentrations for S. aureus; read-out: MICs
Procedure, shortened: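 Growth of S. aureus in media with or without compound, by broth microdilution in microtiter trays following NCCLS M7-A5 guidelines. Values are MICs in μg/mL.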

CC(=O)NC[C@H]1CN(c2ccc(-c3ccc(CNCc4cnn[nH]4)cc3)c(F)c2)C(=O)O1 [Ethane-1,2-disulfonate, Radezolid Ethanedisulfonate Salt]
DVS desorption: weight loss from 95 to 5% RH [1]: Desorption: 2.388% weight loss
DVS sorption: weight gain from 5 to 95% RH [1]: 2.355% weight gain from 5 to
DVS sorption: weight loss upon equilibration at 5% RH [1]: Sorption: 0.017% weight loss
Solubility at Native pH [2]: >133.2 mg/mL
Solubility at Adjusted pH [2]: >116.9 mg/mL
Native pH [2]: 2.0

CC(=O)NC[C@H]1CN(c2ccc(-c3ccc(CNCc4cnn[nH]4)cc3)c(F)c2)C(=O)O1 [Sulfate, Radezolid Sulfate Salt]
DVS desorption: weight loss from 95 to 5% RH ([1]; Sulfate Salt): Desorption: 11.504% weight loss
DVS sorption: weight gain from 5 to 95% RH ([1]; Sulfate Salt): 11.527% weight gain from 5 to
DVS sorption: weight loss upon equilibration at 5% RH ([1]; Sulfate Salt): Sorption: 0.654% weight loss
Solubility at Adjusted pH ([2]; Sulfate Salt): 3.3 mg/mL
Solubility at Native pH ([2]; Sulfate Salt): 4.0 mg/mL
Native pH ([2]; Sulfate Salt): 1.9

CC(=O)NC[C@H]1CN(c2ccc(-c3ccc(CNCc4cnn[nH]4)cc3)c(F)c2)C(=O)O1 [Esylate, Radezolid Esylate Salt]
DVS desorption: weight loss from 95 to 5% RH [1]: Desorption: 2.999% weight loss
DVS sorption: weight gain from 5 to 95% RH [1]: 2.930% weight gain from 5 to
DVS sorption: weight loss upon equilibration at 5% RH [1]: Sorption: 0.22% weight loss
Solubility at Native pH [2]: 53.8 mg/mL
Solubility at Adjusted pH [2]: 61.7 mg/mL
Native pH [2]: 4.0

CC(=O)NC[C@H]1CN(c2ccc(-c3ccc(CNCc4cnn[nH]4)cc3)c(F)c2)C(=O)O1 [Acetate]
solubility [3]: <20 µg/mL

CC(=O)NC[C@H]1CN(c2ccc(-c3ccc(CNCc4cnn[nH]4)cc3)c(F)c2)C(=O)O1 [Tosylate, Radezolid Tosylate Salt]
DVS desorption: weight loss from 95 to 5% RH ([1]; Tosylate Salt): Desorption: 0.435% weight loss
DVS sorption: weight gain from 5 to 95% RH ([1]; Tosylate Salt): 0.435% weight gain from 5 to
DVS sorption: weight loss upon equilibration at 5% RH ([1]; Tosylate Salt): Sorption: 0.070% weight loss
Solubility at Adjusted pH ([2]; Tosylate Salt): 0.4 mg/mL
Solubility at Native pH ([2]; Tosylate Salt): 0.9 mg/mL
Native pH ([2]; Tosylate Salt): 5.1

CC(=O)NC[C@H]1CN(c2ccc(-c3ccc(CNCc4cnn[nH]4)cc3)c(F)c2)C(=O)O1 [Phosphate]
solubility [3]: 1100 µg/mL

CC(=O)NC[C@H]1CN(c2ccc(-c3ccc(CNCc4cnn[nH]4)cc3)c(F)c2)C(=O)O1 [Maleate]
solubility [3]: 2300 µg/mL

CC(=O)NC[C@H]1CN(c2ccc(-c3ccc(CNCc4cnn[nH]4)cc3)c(F)c2)C(=O)O1 [Benzoate]
solubility [3]: <30 µg/mL

CC(=O)NC[C@H]1CN(c2ccc(-c3ccc(CNCc4cnn[nH]4)cc3)c(F)c2)C(=O)O1 [Salicylate]
solubility [3]: <30 µg/mL

CC(=O)NC[C@H]1CN(c2ccc(-c3ccc(CNCc4cnn[nH]4)cc3)c(F)c2)C(=O)O1 [Citrate]
solubility [3]: 2600 µg/mL

CC(=O)NC[C@H]1CN(c2ccc(-c3ccc(CNCc4cnn[nH]4)cc3)c(F)c2)C(=O)O1 [Mesylate, Radezolid Mesylate Salt]
DVS desorption: weight loss from 95 to 5% RH ([1]; Mesylate Salt): Desorption: 0.835% weight loss
DVS sorption: weight gain from 5 to 95% RH ([1]; Mesylate Salt): 1.025% weight gain from 5 to
DVS sorption: weight loss upon equilibration at 5% RH ([1]; Mesylate Salt): Sorption: 0.114% weight loss
Solubility at Adjusted pH ([2]; Mesylate Salt): 18.0 mg/mL
Solubility at Native pH ([2]; Mesylate Salt): 18.6 mg/mL
Native pH ([2]; Mesylate Salt): 4.1

CC(=O)NC[C@H]1CN(c2ccc(-c3ccc(CNCc4cnn[nH]4)cc3)c(F)c2)C(=O)O1 [Fumarate]
solubility [3]: 2600 µg/mL

CC(=O)NC[C@H]1CN(c2ccc(-c3ccc(CNCc4cnn[nH]4)cc3)c(F)c2)C(=O)O1 [Lactate]
solubility [3]: <20 µg/mL

CC(=O)NC[C@H]1CN(c2ccc(-c3ccc(CNCc4cnn[nH]4)cc3)c(F)c2)C(=O)O1 [Tartrate]
solubility [3]: 1800 µg/mL

CC(=O)NC[C@H]1CN(c2ccc(-c3ccc(CNCc4cccc5ccccc45)cc3)c(F)c2)C(=O)O1 [Compound 4022, N-[3-(2-Fluoro-4′-{[(naphthalen-1-ylmethyl)-amino]-methyl}-biphenyl-4-yl)-2-oxo-oxazolidin-5-(S)-ylmethyl]-acetamide]
MIC (S. aureus): 4 µg/mL (≈ 8.04 µM)

CC(=O)NC[C@H]1CN(c2ccc(-c3ccc(CNC(=O)[C@@H]4C[C@@H](O)CN4C(=O)OC(C)(C)C)cc3)c(F)c2)C(=O)O1 [Compound 4311, 2-({4′-[5-(S)-(Acetylamino-methyl)-2-oxo-oxazolidin-3-yl]-2′-fluoro-biphenyl-4-ylmethyl}-carbamoyl)-4-(R)-hydroxy-pyrrolidine-1-(S)-carboxylic acid tert-butyl ester]
MIC (S. aureus): 16 µg/mL (≈ 28 µM)

CC(=O)NC[C@H]1CN(c2ccc(-c3ccc(CNCc4ccncc4)c(F)c3F)c(F)c2)C(=O)O1 [Compound 4089, N-[2-Oxo-3-(2,2′,3′-trifluoro-4′-{[(pyridin-4-ylmethyl)-amino]-methyl}-biphenyl-4-yl)-oxazolidin-5-(S)-ylmethyl]-acetamide]
MIC (S. aureus): 2 µg/mL (≈ 4.13 µM)

CC(=O)NC[C@H]1CN(c2ccc(-c3ccc(Cn4cc(CNC(=O)CN)nn4)cc3)c(F)c2)C(=O)O1 [Compound 1014, N-(1-{4′-[5-(S)-(Acetylamino-methyl)-2-oxo-oxazolidin-3-yl]-2′-fluoro-biphenyl-4-ylmethyl}-1H-[1,2,3]triazol-4-ylmethyl)-2-amino-acetamide]
MIC (S. aureus): 8 µg/mL (≈ 16.1 µM)

CC(=O)NC[C@H]1CN(c2ccc(-c3ccc(CS(=O)(=O)NCc4ccccc4)cc3)c(F)c2)C(=O)O1 [Compound 4170, N-{3-[4′-(Benzylsulfamoyl-methyl)-2-fluoro-biphenyl-4-yl]-2-oxo-oxazolidin-5-(S)-ylmethyl}-acetamide]
MIC (S. aureus): 128 µg/mL (≈ 250 µM)

CC(=O)NC[C@H]1CN(c2ccc(-c3ccc(CNCCCn4ccnn4)cc3)c(F)c2)C(=O)O1 [Compound 4264, N-(3-{2-Fluoro-4′-[(3-[1,2,3]triazol-1-yl-propylamino)-methyl]-biphenyl-4-yl}-2-oxo-oxazolidin-5-(S)-ylmethyl)-acetamide]
MIC (S. aureus): 4 µg/mL (≈ 8.57 µM)

CC(=O)NC[C@H]1CN(c2ccc(-c3ccc(CN(C)Cc4cc(Cl)cc(Cl)c4)cc3)c(F)c2)C(=O)O1 [Compound 4046, N-[3-(4′-{[(3,5-Dichloro-benzyl)-methyl-amino]-methyl}-2-fluoro-biphenyl-4-yl)-2-oxo-oxazolidin-5-(S)-ylmethyl]-acetamide]
MIC (S. aureus): 4 µg/mL (≈ 7.54 µM)

CC(=O)NC[C@H]1CN(c2ccc(-c3ccc(CNCC4CCOC4)cc3)c(F)c2)C(=O)O1 (stereo partly drawn) [Compound 4219, N-[3-(2-Fluoro-4′-{[(tetrahydro-furan-3-ylmethyl)-amino]-methyl}-biphenyl-4-yl)-2-oxo-oxazolidin-5-(S)-ylmethyl]-acetamide]
MIC (S. aureus): 8 µg/mL (≈ 18.1 µM)

CC(=O)NC[C@H]1CN(c2ccc(-c3ccc(CNC(C)c4ccncc4)cc3)c(F)c2)C(=O)O1 (mixture of isomers) [Compound 4159, N-(3-{2-Fluoro-4′-[(1-pyridin-4-(R/S)-yl-ethylamino)-methyl]-biphenyl-4-yl}-2-oxo-oxazolidin-5-(S)-ylmethyl)-acetamide]
MIC (S. aureus): 2 µg/mL (≈ 4.32 µM)

CC(=O)NC[C@H]1CN(c2ccc(-c3ccc(CNC(=O)c4cccn4C)cc3)c(F)c2)C(=O)O1 [Compound 4010, 1-Methyl-1H-pyrrole-2-carboxylic acid {4′-[5-(S)-(acetylamino-methyl)-2-oxo-oxazolidin-3-yl]-2′-fluoro-biphenyl-4-ylmethyl}-amide]
MIC (S. aureus): 1 µg/mL (≈ 2.15 µM)

CC(=O)NC[C@H]1CN(c2ccc(-c3ccc(Cn4ncnn4)cc3)c(F)c2)C(=O)O1 [Compound 1056, N-[3-(2-Fluoro-4′-tetrazol-2-ylmethyl-biphenyl-4-yl)-2-oxo-oxazolidin-5-(S)-ylmethyl]-acetamide]
MIC (S. aureus): 0.25 µg/mL (≈ 0.609 µM)

CCSc1nnn(Cc2ccc(-c3ccc(N4C[C@H](CNC(C)=O)OC4=O)cc3F)cc2)n1 [Compound 1082, N-{3-[4′-(5-Ethylsulfanyl-tetrazol-2-ylmethyl)-2-fluoro-biphenyl-4-yl]-2-oxo-oxazolidin-5-(S)-ylmethyl}-acetamide]
MIC (S. aureus): 0.5 µg/mL (≈ 1.06 µM)

CC(=O)NC[C@H]1CN(c2ccc(-c3ccc(CNNC(=O)c4snnc4C)cc3)c(F)c2)C(=O)O1 [Compound 4271, N-(3-{2-Fluoro-4′-[N′-(4-methyl-[1,2,3]thiadiazole-carbonyl)-hydrazinomethyl]-biphenyl-4-yl}-2-oxo-oxazolidin-5-(S)-ylmethyl)-acetamide]
MIC (S. aureus): 0.25 µg/mL (≈ 0.501 µM)

CC(=O)NC[C@H]1CN(c2ccc(-c3ccc(CNCc4ccc(Cl)cc4)cc3)c(F)c2)C(=O)O1 [Compound 4063, N-(3-{4′-[(4-Chloro-benzylamino)-methyl]-2-fluoro-biphenyl-4-yl}-2-oxo-oxazolidin-5-(S)-ylmethyl)-acetamide]
MIC (S. aureus): 2 µg/mL (≈ 4.15 µM)
